# Reference: US10001472B2, “3D determination of cell chirality” (Rensselaer Polytechnic Institute, priority 2015, dated 2018)
# Test system: Madin-Darby canine kidney (MDCK) epithelial cells
# Assay: 3D cell chirality (rotation direction) of cells in bilayer MATRIGEL substrate
# Format: cell-based
# Settings: MDCK cells in 3D substrate, FIG. 5
# Experimental: The cell line used was Madin-Darby canine kidney (MDCK) epithelial cells. The 3D substrate culture system included a base layer was composed of 100% MATRIGEL®. The base layer was seeded with a single cell suspension of MDCK epithelial cells. After cell attachments to the base layer, a top layer was generated by overlaying culture with 2% MATRIGEL®.
# Self-organization of the epithelial cells during microtissue development was observed using phase contrast imaging and confocal microscopy. The cells were stained with DAPI (4′,6-diamidino-2-phenylindole), Phalloidin, and ZO-1 antibody.
# Time-lapse images were collected for at least 2 hours at intervals of 1 minute over a period of 6 days. Videos were processed in ImageJ and analyzed for quantification of collective rotational direction. Direction of rotation was categorized into clockwise (CW), counterclockwise (CCW), complex rotation, and no rotation. Phase-contrast images of microtissue development from a single cell embedded within the multilayer MATRIGEL® system over time.
# Latrunculin A was used to study the role of actin function in left right asymmetry. Latrunculin A is a drug which inhibits actin polymerization. […] These studies are consistent with 2D studies.
structure (smiles),measurement,setting,value
C/C1=C/C(=O)O[C@@H]2C[C@@H](CC[C@H](C)/C=C\C=C\CC1)O[C@@](O)([C@@H]1CSC(=O)N1)C2 [Latrunculin A],effect on cell chirality (rotation direction),"base layer 100% MATRIGEL, top layer 2% MATRIGEL",reversal of chirality
same,concentration dependence of chirality effect,higher concentrations of Latrunculin A,increasing clockwise chirality
